According to publication PMC10060354, “Discovery of a small molecule ligand of FRS2 that inhibits invasion and tumor growth” (Cellular Oncology, 2022):
In brackets after ≈: the same amount, converted by molar mass. Read-outs that look alike come from different tables or passages of the source. One block for each molecule: values may come before it.

How the values were obtained:
[1] = Cell viability (cytotoxicity, MTT) using HepG2; assay type: cell-based, human; conditions: human, HepG2 cells
Experimental: (§1) HepG2 human hepatocellular carcinoma cells were plated on 96-well tissue culture polystyrene plates for 24 h prior to dosing of the cells. The shortlisted hits were diluted in DMSO and serial dilutions are made 1% DMSO in growth media. Compounds at 8 concentrations in triplicate was then incubated for 72 h. Appropriate blanks and controls were run alongside the assay. One h prior to the end of the incubation period, the cells were loaded with MTT [yellow; 3-(4,5-dimethyl-2-thiazolyl)-2,5-diphenyl-2H-tetrazolium bromide], the plates were dried and re-solubilized using DMSO. The plates were then scanned at 570 nm using a plate reader.
(§2) The minimum effective concentration was determined from the lowest concentration whose mean value exceeds the significance level, provided either a clear dose–response relationship was observed, or at least two consecutive concentration points were above the significance level.

[2] = test system: HepG2 human hepatocellular carcinoma cells; test: Cell viability (cytotoxicity, MTT) using HepG2; assay type: cell-based; conditions: for MEC: 72h, 3 replicas, NR = No response (Summary sheet); for MTT (MEC) Minimum effective concentration: 72 h, summary sheet
Experimental: as §1, §2

[3] = Semi-thermodynamic solubility; assay type: physicochemical; conditions: for solubility: Room Temp, Overnight, LC-MSMS; for solubility thermodynamic: overnight; for solubility thermodynamic / Solubility (class in words): summary sheet
Experimental: In vitro ADME-T assays were performed by Cyprotex (Cyprotex Discovery, Cheshire, UK). […] The solution was agitated at ambient temperature overnight. The solutions were then centrifuged for 30 min at 3000 rpm at RT. The supernatant was removed and centrifuged for a further 30 min under the same conditions. An aliquot of the resulting supernatant was diluted in 50% methanol in water (containing an internal standard for MS analysis) prior to analysis by LC–MS/MS. […] These stocks were diluted in 50% methanol in water (containing an internal standard for MS analysis) prior to analysis by LC–MS/MS. The solubility of the shortlisted hits was calculated from a linear or quadratic fit of the standard curve.

[4] = test system: DAOY cells; test: Spheroid invasion assay (SIA), bFGF-induced collagen I invasion; assay type: cell-based, human; conditions: for functional activity in SIA (result in words): DAOY, bFGF-induced, 1, 5 and 10 µM
Experimental: 1000—2500 cells/well in 100 μl were seeded in 96 well Corning® Spheroid microplate (CLS4520, Sigma-Aldrich) or in cell-repellent 96 well microplate (650,790, Greiner Bio-one). SIA and analysis was performed as described before. In brief: After spheroid formation (24 – 72 h after seeding), 70 µl medium was removed and replaced with the collagen mixture (2.5 mg/ml Pure Col Collagen I (Advanced Biomatrix)), DMEM 1x (from 10 × stock, Sigma, D2429) and 0.4% Sodium bicarbonate (Sigma, S8761)), resulting in a final collagen concentration of 1.75 mg/ml. Embedded spheroids were stimulated with bFGF (100 ng/ml if not otherwise stated), HGF (30 ng /ml) or EGF (20 ng/ml) and distance of invaded cells quantified 24 – 48 h after embedding. Compounds and BGJ398 were added in Dimethylsulfoxid (DMSO) and corresponding DMSO concentrations were used in control samples.

[5] = CaCo-2 permeability (bi-directional); conditions: human
Experimental: Caco-2 cells obtained from the ATCC were used between passage numbers 40—60. Cells were seeded onto Millipore Multiscreen Transwell plates at 1 × 10^5 cells/cm^2. The cells were cultured in DMEM and media was changed every two or three days. On day 20, the permeability study was performed. […] Cells were then incubated with HBSS at the desired pH in both apical and basolateral compartments for 40 min to stabilize physiological parameters.
The fluorescent integrity marker lucifer yellow was also included in the dosing solution. Analytical standards were prepared from test compound DMSO dilutions and transferred to buffer, maintaining a 1% v/v DMSO concentration.
For assessment of A-B permeability, HBSS was removed from the apical compartment and replaced with test compound dosing solution. The apical compartment insert was then placed into a companion plate containing fresh buffer (containing 1% v/v DMSO). For assessment of B-A permeability, HBSS was removed from the companion plate and replaced with test compound dosing solution. Fresh buffer (containing 1% v/v DMSO) was added to the apical compartment insert, which was then placed into the companion plate.
Compound permeability was assessed in duplicate. Compounds of known permeability characteristics were run as controls on each assay plate.
Test and control compounds were quantified by LC–MS/MS cassette analysis using a 7-point calibration with appropriate dilution of the samples. The starting concentration (C0) was determined from the dosing solution and the experimental recovery calculated from C0 and both apical and basolateral compartment concentrations. The integrity of the monolayer throughout the experiment was checked by monitoring lucifer yellow permeation using fluorimetric analysis.
The permeability coefficient (Papp) for each compound was calculated from the following equation: Papp=dQ/dtC0×A where dQ/dt was the rate of permeation of the drug across the cells, C0 was the donor compartment concentration at time zero and A was the area of the cell monolayer. C0 was obtained from analysis of the dosing solution.
Efflux ratio (ER) was calculated from mean A-B and B-A data. This was derived from: ER=Papp(B-A)Papp(A-B)

[6] = Microsomal metabolic stability; assay type: in vitro ADME; conditions: human, pooled liver microsomes; for half-life at 1 µM: pH 7.4, liver microsomes, read-out: t1/2; for microsomal CLint at 1 µM: pH 7.4, read-out: Metabolic stability - Intrinsic clearance (CI)
Experimental: Pooled liver microsomes were purchased from Xenotech (H0500) and were stored according to manufacturer’s instructions prior to use. […] A minus co-factor control incubation was included for each compound tested where 0.1 M phosphate buffer pH 7.4 was added instead of NADPH. Two control compounds were included with each species. All incubations were performed singularly for each shortlisted hit. Each compound was incubated for 0, 5, 15, 30 and 45 min. The minus co-factor was incubated for 45 min only. The reactions were stopped by transferring incubate into acetonitrile at the appropriate time points in a 1:3 ratio. The termination plates were centrifuged at 3000 rpm for 20 min at 4 °C to precipitate the protein. Following protein precipitation, the supernatant were combined in cassette of up to 4 compounds, internal standard for MS analysis was added and samples were analyzed using LC–MS/MS. From a plot of In peak area ratio (compound peak area/internal standard peak area) against time, the gradient of the lines were determined. Subsequently, half-life and intrinsic clearance were calculated using the following equations. Eliminationrateconstant(k)=(-gradient)Half-life(t1/2)(min)=0.693/kIntrinsicclearance(CLint)(μl/min/mgprotein)=Vx0.693/t1/2 where V = Incubation volume (µl) / Microsomal protein (mg)

[7] = 72h, 3 replicas, NR = No response (Summary sheet), read-out: AC50
[8] = PBS, aqueous buffer, thermodynamic from solid, read-out: Solubility Replicate 1
[9] = Caco-2, Mean Papp A-B, Caco-2, summary sheet
[10] = Caco-2, Mean Papp B-A, Caco-2, summary sheet
[11] = Caco-2, pH 7.4, Mean % Recovery A2B, HBSS/HBSS, pH 7.4/7.4
[12] = Caco-2, pH 7.4, Mean % Recovery B2A, HBSS/HBSS, pH 7.4/7.4
[13] = Caco-2, pH 7.4, Mean Papp A2B, HBSS/HBSS, pH 7.4/7.4
[14] = Caco-2, pH 7.4, Mean Papp B2A, HBSS/HBSS, pH 7.4/7.4
[15] = Caco-2, pH 7.4, Papp A2B Replicate 1, HBSS/HBSS, pH 7.4/7.4
[16] = Caco-2, pH 7.4, Papp B2A Replicate 1, HBSS/HBSS, pH 7.4/7.4
[17] = Caco-2, pH 7.4, Papp B2A Replicate 2, HBSS/HBSS, pH 7.4/7.4
[18] = PBS, aqueous buffer, thermodynamic from solid, read-out: Mean Solubility
[19] = PBS, aqueous buffer, thermodynamic from solid, read-out: Solubility Replicate 2
[20] = PBS, aqueous buffer, thermodynamic from solid, read-out: Solubility Replicate 3
[21] = PBS, aqueous buffer, thermodynamic from solid, read-out: Solubility Replicate 4
[22] = aqueous buffer, thermodynamic from solid, PBS
[23] = 72 h, summary sheet, read-out: MTT (AC50) Conc at which 50% of maximum efficacy is reached

SMILES: N#CC(C#N)=NNc1cccc(Cl)c1 [carbonyl cyanide 3-chlorophenylhydrazone, reference compound]
AC50 at 72 h [1, 7]: 6.66 µM
MEC [2]: 4.22 µM

SMILES: CN(C)CCCN1c2ccccc2Sc2ccc(Cl)cc21 [Chlorpromazine, reference compound]
AC50 at 72 h [1, 7]: 12.9 µM
MEC [2]: 10.7 µM

More lines, main results first:

solubility [3, 8]: > 100 µM
solubility ([3]; read-out: Mean Solubility): >100 µM
solubility ([3]; read-out: Solubility Replicate 2): >100 µM
solubility ([3]; read-out: Solubility Replicate 3): >100 µM
solubility ([3]; read-out: Solubility Replicate 4): >100 µM
SMILES: CC(=O)CC(c1ccccc1)c1c(O)c2ccccc2oc1=O (stereo not drawn) [warfarin, reference compound]

EC50 ([4]; Homo sapiens, Daoy, DAOY cells, n = 3 technical replicas, read-out: EC50 for the inhibition of bFGF-induced collagen I invasion): 7.51 µM
efflux ratio at 120 min, 10 μM ([5]; Caco-2): 4
Papp A→B at 120 min, 10 μM [5, 9]: 1.11 ×10⁻⁶ cm/s
Papp B→A at 120 min, 10 μM [5, 10]: 4.46 ×10⁻⁶ cm/s
efflux ratio at 120 min, 10 μM ([5]; Caco-2, pH 7.4): 4
recovery at 120 min, 10 µM [5, 11]: 6.59%
recovery at 120 min, 10 µM [5, 12]: 50.6%
Papp A→B at 120 min, 10 μM [5, 13]: 1.11 ×10⁻⁶ cm/s
Papp B→A at 120 min, 10 μM [5, 14]: 4.46 ×10⁻⁶ cm/s
Papp A→B at 120 min, 10 μM [5, 15]: 1.12 ×10⁻⁶ cm/s
Papp A→B at 120 min, 10 μM ([5]; Caco-2, pH 7.4, Papp A2B Replicate 2, HBSS/HBSS, pH 7.4/7.4): 1.11 ×10⁻⁶ cm/s
Papp B→A at 120 min, 10 μM [5, 16]: 5.88 ×10⁻⁶ cm/s
Papp B→A at 120 min, 10 μM [5, 17]: 3.04 ×10⁻⁶ cm/s
solubility [3, 18]: 1.25 µM (≈ 0.443 µg/mL)
solubility [3, 8]: 1.26 µM (≈ 0.447 µg/mL)
solubility [3, 19]: 1.12 µM (≈ 0.397 µg/mL)
solubility [3, 20]: 1.21 µM (≈ 0.429 µg/mL)
solubility [3, 21]: 1.4 µM (≈ 0.496 µg/mL)
solubility thermodynamic [3, 22]: 1.25 µM (≈ 0.443 µg/mL)
Solubility (class in words) [3]: Sligthly
half-life at 1 µM [6]: 0.552 min
microsomal CLint at 1 µM [6]: 2510 µL/min/mg
SMILES: CC1(C)Cc2cccc(OCC(=O)Nc3nc4ccccc4s3)c2O1 [Compound E25]
functional activity in SIA (result in words) [4]: comparable inhibition of invasion
AC50 at 72 h [1, 23]: 58.7 µM
MEC [2]: 42.6 µM
MTT (MEC) Minimum effective concentration [2]: 42.6 µM

efflux ratio at 120 min, 10 μM ([5]; Caco-2): 36.9
Papp A→B at 120 min, 10 μM [5, 9]: 0.3 ×10⁻⁶ cm/s
Papp B→A at 120 min, 10 μM [5, 10]: 11.1 ×10⁻⁶ cm/s
efflux ratio at 120 min, 10 μM ([5]; Caco-2, pH 7.4): 36.9
recovery at 120 min, 10 µM [5, 11]: 30%
recovery at 120 min, 10 µM [5, 12]: 8.82%
Papp A→B at 120 min, 10 μM [5, 13]: 0.3 ×10⁻⁶ cm/s
Papp B→A at 120 min, 10 μM [5, 14]: 11.1 ×10⁻⁶ cm/s
Papp A→B at 120 min, 10 μM [5, 15]: 0.3 ×10⁻⁶ cm/s
Papp B→A at 120 min, 10 μM [5, 16]: 11.5 ×10⁻⁶ cm/s
Papp B→A at 120 min, 10 μM [5, 17]: 10.6 ×10⁻⁶ cm/s
solubility [3, 18]: 2.18 µM (≈ 0.649 µg/mL)
solubility [3, 8]: 1.95 µM (≈ 0.581 µg/mL)
solubility [3, 20]: 2.79 µM (≈ 0.831 µg/mL)
solubility [3, 21]: 1.79 µM (≈ 0.533 µg/mL)
solubility thermodynamic [3, 22]: 2.18 µM (≈ 0.649 µg/mL)
Solubility (class in words) [3]: Sligthly
half-life at 1 µM [6]: 2.83 min
microsomal CLint at 1 µM [6]: 490 µL/min/mg
SMILES: Oc1cc(Cl)cc2c1NC(c1ccccc1)C1CC=CC21 (stereo not drawn) [Compound 11]
functional activity in SIA (result in words) [4]: reduced effect compared to its parent compound 3.18 at all concentrations
AC50 at 72 h [1, 23]: 19.6 µM
MEC [2]: 14.2 µM
MTT (MEC) Minimum effective concentration [2]: 14.2 µM

solubility [3, 18]: 29.8 µM (≈ 14.3 µg/mL)
solubility [3, 8]: 34.3 µM (≈ 16.4 µg/mL)
solubility [3, 19]: 24.2 µM (≈ 11.6 µg/mL)
solubility [3, 20]: 29.6 µM (≈ 14.2 µg/mL)
solubility [3, 21]: 31.2 µM (≈ 15 µg/mL)
SMILES: COC(=O)C1=C(C)NC(C)=C(C(=O)OCCN(C)Cc2ccccc2)C1c1cccc([N+](=O)[O-])c1 (stereo not drawn) [nicardipine, reference compound]
